Consider 21 compounds from patent US20120041036A1, “SUBSTITUTED ACYLGUANIDINE DERIVATIVES (AS AMENDED)” (priority 2009, published 2012).

pKd, pKi: −log10 of the molar value. Structures can show the parent of a compound that is named as a salt.

One test has as its target T1, human 5-HT5A receptor (Homo sapiens, UniProt P47898).
T1 construct: expressed in transfected cells; membrane preparation
The test can be described thus: Test on a human 5-HT5A receptor binding inhibition ([3H]5-CT, membrane from HEK293 cells). As to conditions: for pKi: membrane from HEK293 cells expressing human 5-HT5A receptor, Ki calculated from IC50 and Kd of [3H]5-CT. The procedure:
The ORF (open reading frame; protein coding region) of a human 5-HT5A receptor (Genbank AF498985) was cloned from a human hippocampus cDNA library, and then inserted into a pCR2.1 vector (Invitrogen), and Escherichia coli containing the plasmid was cultured in a large amount. Next, the full-length cDNA sequence of the human 5-HT5A receptor was analyzed, and recombined into a pCDNA3.1 vector (Invitrogen) as an expression vector and cultured in a large amount. HEK293 established cells (ATCC) derived from the human fetal kidney were seeded, the expression plasmid (1 μg) obtained above were added thereto with LIPOFECTAMINE 2000 (Invitrogen; 2 μl), the gene was transfected into HEK293 cells, and the expression cells were screened with a drug-resistant marker, Geneticin (G418 sulfate 500 μg/ml; Kanto Chemical Co., Inc.). Thus prepared recombinant cells which expressed the gene were cultured in a medium containing D-MEM (Dulbecco's modified eagle medium, Sigma), 10% FCS (Fetal calf serum: fetal bovine serum), 1% Pc./Sm (Penicillin/Streptomycin, Invitrogen), and 500 μg/ml G418 for 3 days. These experimental operations followed a manual for gene operation experiment and an instruction appended in a reagent, and the like, such as a known method (Sambrook, J. et al, Molecular Cloning—A Laboratory Manual”, Cold Spring Harbor laboratory, NY, 1989).
HEK293 cells for forced expressions of a human 5-HT5A receptor were cultured in a F500 plate, and scraped with a scraper. After centrifugation, the precipitate was collected, and an incubation buffer (50 mM Tris (HCl) (pH 7.4), 10 mM MgSO4, and 0.5 mM EDTA (ethylenediamine tetraacetic acid)) was added thereto. After homogenization, it was further centrifuged, and the incubation buffer was added to the precipitate, followed by thoroughly suspending. The operation was repeated, and protein concentration was measured, thereby completing preparation of the membrane.
A solution of the compound to be tested and 100 μM 5-CT (5-carboxamidetriptamine) in DMSO was added to a 96-well plate at 2 μl/well, suspended in an incubation buffer, and a membrane from HEK293 cells for forced expressions of a human 5-HT5A receptor prepared at 200 μg/ml was added at 100 μl/well. After incubation at room temperature for 15 minutes, a [^3H]5-CT solution (2 nM [^3H]5-CT, incubation buffer) was added thereto at 100 μl/well.
Separately, 100 μl of the solution was distributed into a liquid scintillation vial, and 2 ml of Aquasol II (registered trademark) was added thereto, followed by stirring. Then, radioactivity was measured by a liquid scintillation counter. It was incubated at 37° C. for 60 minutes. The reaction mixture was sucked into 96-well GF/C filter plate that had been pre-treated with 0.2% polyethyleneimine, and washed six times with an ice-cooled, 50 mM Tris (pH 7.5) buffer. The GF/C filter plate was dried.
Microscint TMPS (registered trademark) was added thereto at 40 μl/well. Radioactivity remaining on the GF/C filter plate was measured by a top counter.
The [^3H]5-CT binding inhibiting activity by the compound to be tested in each experiment was determined as an IC50 value with a radioactivity upon addition of DMSO alone being 0% inhibition, and a radioactivity upon addition of 1 μM 5-CT being 100% inhibition. Separately, Ki values were calculated from the Kd value of the [^3H]5-CT determined from Scatchard analysis, by the following equation.

The test system of test [1] is hyperactivity caused by MK-801. Description: Improvement effect on increase in motion induced by methamphetamine or MK-801 in mice. The following applies: male ICR mouse; oral dose 0.03 mg/kg; MK-801 0.3 mg/kg i.p.; motion measured 60 minutes; significance P<0.05. The class given is in vivo. The procedure: The improvement effect of compound of formula (I) was evaluated by measuring the quantity of motion by IR irradiation when a compound was administered to a mouse in which hyperactivity was caused by methamphetamine (hereinafter, simply referred to as “MAP”) or MK-801, known as an animal model of schizophrenia.
An animal was taken out of a breeding cage, orally administered with a compound to be tested, and then placed into a cage for breeding. After 30 minutes, the animal was put into a cage for measurement, and the motion with the compound to be tested alone was measured. Further, after 30 to 90 minutes, the animal was taken out, and intraperitoneally administered with a drug for increasing the motion (MAP; 1 mg/kg or MK-801; 0.3 mg/kg, dissolved in a physiological saline, respectively). Then, the motion for a certain period of time (60 minutes) was measured by using a motion measurement device (CompACT AMS from Muromachi Kikai Co., Ltd.) by means of an infrared sensor.
For a normal mouse (a mouse administered with physiological saline) and a mouse administered with a drug for increasing the motion, a Student's T test was performed for evaluation for each interval. For a group administered with the compound to be tested, an assay was performed using a solvent (vehicle) group and a Dunnett's T test. […]

T1 sequence (P47898 whole entry): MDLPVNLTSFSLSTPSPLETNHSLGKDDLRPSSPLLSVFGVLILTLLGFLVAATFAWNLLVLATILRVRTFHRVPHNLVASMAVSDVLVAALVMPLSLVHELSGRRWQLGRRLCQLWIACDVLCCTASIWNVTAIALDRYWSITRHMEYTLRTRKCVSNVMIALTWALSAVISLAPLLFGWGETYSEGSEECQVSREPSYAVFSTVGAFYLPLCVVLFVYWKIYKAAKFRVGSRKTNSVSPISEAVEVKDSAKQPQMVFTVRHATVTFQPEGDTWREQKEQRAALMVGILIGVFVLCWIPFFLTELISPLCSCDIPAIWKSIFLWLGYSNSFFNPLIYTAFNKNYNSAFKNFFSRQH

Take `N#Cc1cc(F)c(-c2c(F)cc(F)cc2F)c2cc(C(=O)N=C(N)N)ccc12` [Example 5]: the pKi at human 5-HT5A receptor was 7.52 to 9.00. With `N#Cc1ccc2ccc(C(=O)N=C(N)N)cc2c1-c1ccc(F)cc1` [Example 14], the pKi at human 5-HT5A receptor is 7.52 to 9.00.

For `N#Cc1ccc2ccc(C(=O)N=C(N)N)cc2c1-c1c(F)cncc1F` [Example 18], on human 5-HT5A receptor, the pKi is 7.52 to 9.00. For `N#Cc1ccc2ccc(C(=O)N=C(N)N)cc2c1-c1ccccc1Cl` [Example 9], at human 5-HT5A receptor, the pKi was 7.52 to 9.00.

Regarding `COc1cc(C#N)ccc1-c1c(C#N)ccc2ccc(C(=O)N=C(N)N)cc12` [Example 15], the pKi on human 5-HT5A receptor is 6.52 to 7.52. Same read-out and setting: the figure for `N#Cc1ccc2ccc(C(=O)N=C(N)N)cc2c1-c1ccccc1F` [Example 10] is 7.52 to 9.00. As for `N#Cc1ccc2ccc(C(=O)N=C(N)N)cc2c1-c1ccncc1F` [Example 4], the pKi on human 5-HT5A receptor is 6.52 to 7.52.

As to `N#Cc1ccc2ccc(C(=O)N=C(N)N)cc2c1C1CC1` [Example 21], the pKi on human 5-HT5A receptor was 6.52 to 7.52. Regarding `N#Cc1ccc2ccc(C(=O)N=C(N)N)cc2c1-c1c(F)cc(CO)cc1F` [Example 17], the pKi at human 5-HT5A receptor is 6.52 to 7.52. Consider `N#Cc1ccc2ccc(C(=O)N=C(N)N)cc2c1-c1c(F)cccc1F` [Example 7], for which the pKi on human 5-HT5A receptor was 7.52 to 9.00. Still for that read-out and setting: the value for `COc1cccc(F)c1-c1c(C#N)ccc2ccc(C(=O)N=C(N)N)cc12` [Example 8] was 7.52 to 9.00; that for `CS(=O)(=O)c1ccc2ccc(C(=O)N=C(N)N)cc2c1-c1c(F)cc(F)cc1F` [Example 13] was 6.52 to 7.52; that for `N#Cc1cc(F)c(-c2ccncc2)c2cc(C(=O)N=C(N)N)ccc12` [Example 19] was 6.52 to 7.52. On the same count and under the same terms, the value for `N#Cc1ccc2ccc(C(=O)N=C(N)N)cc2c1-c1ccccc1` [Example 20] was 7.52 to 9.00; that for `N#Cc1ccc2ccc(C(=O)N=C(N)N)cc2c1-c1ccncc1Cl` [Example 3] was 6.52 to 7.52. The same measure, in the same setting: the figure for `N#Cc1ccc2ccc(C(=O)N=C(N)N)cc2c1-c1c(F)cc(F)cc1F` [Example 2] is 7.52 to 9.00. Turning to `CSc1ccc2ccc(C(=O)N=C(N)N)cc2c1-c1c(F)cc(F)cc1F` [Example 12], the pKi on human 5-HT5A receptor was 7.52 to 9.00. As for `NCCc1c[nH]c2ccc(C(N)=O)cc12` [[^3H]5-CT, 5-carboxamidetriptamine, reference compound], the pKd at human 5-HT5A receptor (human 5-HT5A receptor membrane, read-out: Kd value of [3H]5-CT determined from Scatchard analysis) was 8.31. With `N#Cc1ccc2ccc(C(=O)N=C(N)N)cc2c1-c1ccc(F)cc1F` [Example 6], the pKi at human 5-HT5A receptor is 7.52 to 9.00. For `N#Cc1ccc2ccc(C(=O)N=C(N)N)cc2c1C1=CCOCC1` [Example 16], on human 5-HT5A receptor, the pKi was 6.52 to 7.52.

Consider `N#Cc1ccc2ccc(C(=O)N=C(N)N)cc2c1-c1c(F)cccc1Cl` [Example 1, 8-(2-chloro-6-fluorophenyl)-7-cyano-N-(diaminomethylene)-2-naphthamide hydrochloride], for which, at human 5-HT5A receptor, the pKi was 8.37. Besides, the “inhibition of hyperactivity (motion) caused by MK-801” value in test [1] is given as “significantly inhibited”.
